Bounds are passed on as bounds.

The target in one experiment is T1, recombinant human ULK1 protein (1-649) (Homo sapiens, UniProt O75385).
T1 construct: recombinant human ULK1 protein (1-649, SignalChem #U01-11G); purchased SignalChem U01-11G
T1 sequence (O75385 1-649): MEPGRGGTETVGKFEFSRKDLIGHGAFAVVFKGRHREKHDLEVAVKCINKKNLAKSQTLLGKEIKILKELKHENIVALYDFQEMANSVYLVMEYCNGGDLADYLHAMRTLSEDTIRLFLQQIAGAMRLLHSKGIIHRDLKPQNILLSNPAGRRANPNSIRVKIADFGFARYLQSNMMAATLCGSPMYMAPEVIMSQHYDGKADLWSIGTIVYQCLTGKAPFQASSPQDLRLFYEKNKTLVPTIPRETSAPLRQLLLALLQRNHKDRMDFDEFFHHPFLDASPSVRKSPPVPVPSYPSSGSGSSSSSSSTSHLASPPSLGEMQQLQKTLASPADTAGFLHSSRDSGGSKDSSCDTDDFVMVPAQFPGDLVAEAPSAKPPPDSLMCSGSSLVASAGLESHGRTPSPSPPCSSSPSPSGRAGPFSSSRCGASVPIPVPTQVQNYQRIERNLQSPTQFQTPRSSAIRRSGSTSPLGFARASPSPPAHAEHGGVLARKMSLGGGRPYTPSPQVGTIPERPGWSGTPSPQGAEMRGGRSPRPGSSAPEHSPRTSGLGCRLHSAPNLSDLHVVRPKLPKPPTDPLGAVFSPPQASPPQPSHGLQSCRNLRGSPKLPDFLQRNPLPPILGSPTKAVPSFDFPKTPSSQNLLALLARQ
Nature of the experiment: ULK1 inhibition assay (ADP Glo). The format is biochemical. The note with it: Table 1; 25 uM ATP, MBP substrate, one hour. The procedure, abridged:
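Recombinant ULK1 (2 ug/mL) phosphorylated myelin basic protein (80 ug/mL) at 25 uM ATP; ADP formed was detected by ADP-Glo after 1 h. Compounds ran in triplicate, 16-dose 3-fold serial dilution from 30 uM, to give IC50.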
For orientation: ADP-Glo first removes unused ATP, then detects ADP through luciferase.
In general, IC50 refers to the concentration that inhibits the measured activity by half. In the case of `NS(=O)(=O)N1CCc2cc(Nc3ncc(C(F)(F)F)c(NC4CC4)n3)ccc2C1` [Compound A25], the 50% inhibitory concentration (IC50) is < 1 nM. Same read-out and setting: to `CNC(=O)c1ccccc1Nc1nc(Nc2ccc3c(c2)CCN(Cc2ccc(OC)cc2)C3)ncc1Br` [Compound A129, 2-{5-Bromo-2-[2-(4-methoxy-benzyl)-1,2,3,4-tetrahydro-isoquinolin-6-ylamino]-pyrimidin-4-ylamino}-N-methyl-benzamide] belongs > 10 nM; to `COc1ccc(CN2CCc3cc(Nc4ncc(C(F)(F)F)c(NC5CC5)n4)ccc3C2)cc1` [Compound A113], < 1 nM. Take `CNC(=O)c1ccccc1Nc1nc(Nc2ccc3c(c2)CCN(CCC(N)=O)C3)ncc1Br` [Compound A142, 2-{5-Bromo-2-[2-(2-carbamoyl-ethyl)-1,2,3,4-tetrahydro-isoquinolin-6-ylamino]-pyrimidin-4-ylamino}-N-methyl-benzamide]: the IC50 is > 10 nM. On the same count and under the same terms, with `CC(=O)N1CCc2ccc(Nc3ncc(C(F)(F)F)c(NC4CC4)n3)cc2C1` [Compound A98] the figure was 1 to 10 nM; with `CNC(=O)c1ccccc1Nc1nc(Nc2ccc3c(c2)CN(CCC(N)=O)CC3)ncc1Br` [Compound A166, 2-{5-Bromo-2-[2-(2-carbamoyl-ethyl)-1,2,3,4-tetrahydro-isoquinolin-7-ylamino]-pyrimidin-4-ylamino}-N-methyl-benzamide], > 10 nM; with `FC(F)(F)c1cnc(Nc2ccc3c(c2)CN(Cc2ccco2)CC3)nc1NC1CC1` [Compound A89], 1 to 10 nM. Regarding `CNC(=O)c1ccccc1Nc1nc(Nc2ccc3c(c2)CN(S(N)(=O)=O)CC3)ncc1Br` [Compound A161, 2-[5-Bromo-2-(2-sulfamoyl-1,2,3,4-tetrahydro-isoquinolin-7-ylamino)-pyrimidin-4-ylamino]-N-methyl-benzamide], the IC50 was > 10 nM. The same measure, in the same setting: with `CNC(=O)c1ccccc1Nc1nc(Nc2ccc3c(c2)CN(Cc2cccnc2)CC3)ncc1Br` [Compound A159, 2-[5-Bromo-2-(2-pyridin-3-ylmethyl-1,2,3,4-tetrahydro-isoquinolin-7-ylamino)-pyrimidin-4-ylamino]-N-methyl-benzamide] the figure was > 10 nM.

For the compound `FC(F)(F)c1cnc(Nc2ccc3c(c2)CN(C2COC2)CC3)nc1NC1CC1` [Compound A102], the IC50 fell in the range of 1 to 10 nM. Same read-out and setting: with `FC(F)(F)c1cnc(Nc2ccc3c(c2)CN(CCS)CC3)nc1NC1CC1` [Compound A78] the figure was < 1 nM; with `FC(F)(F)c1cnc(Nc2ccc3c(c2)CCN(Cc2ccccc2)C3)nc1NC1CC1` [Compound A8], < 1 nM.

As to `O=C(CN1CCc2ccc(Nc3ncc(C(F)(F)F)c(NC4CC4)n3)cc2C1)N1CCOCC1` [Compound A100], the IC50 is < 1 nM. Same read-out and setting: with `CNCC(=O)N1CCc2ccc(Nc3ncc(Br)c(Nc4ccccc4C(=O)NC)n3)cc2C1` [Compound A153, 2-{5-Bromo-2-[2-(2-methylamino-acetyl)-1,2,3,4-tetrahydro-isoquinolin-7-ylamino]-pyrimidin-4-ylamino}-N-methyl-benzamide] the figure was > 10 nM; with `CN(C)C(=O)CN1CCc2cc(Nc3ncc(C(F)(F)F)c(NC4CC4)n3)ccc2C1` [Compound A74], < 1 nM. Still for that read-out and setting: to `NCCN1CCc2cc(Nc3ncc(C(F)(F)F)c(NC4CC4)n3)ccc2C1` [Compound A34] belongs < 1 nM; to `CC(C)(O)CN1CCc2cc(Nc3ncc(C(F)(F)F)c(NC4CC4)n3)ccc2C1` [Compound A18], < 1 nM. As for `O=C(CCO)N1CCc2cc(Nc3ncc(C(F)(F)F)c(NC4CC4)n3)ccc2C1` [Compound A68], the IC50 was < 1 nM. For `CNC(=O)c1ccccc1Nc1nc(Nc2ccc3c(c2)CCN(Cc2ccncn2)C3)ncc1Br` [Compound A146, 2-[5-Bromo-2-(2-pyrimidin-4-ylmethyl-1,2,3,4-tetrahydro-isoquinolin-6-ylamino)-pyrimidin-4-ylamino]-N-methyl-benzamide], the IC50 is > 10 nM. Same read-out and setting: to `FC(F)(F)c1cnc(Nc2ccc3c(c2)CCN(Cc2cncnc2)C3)nc1NC1CC1` [Compound A49] belongs < 1 nM. Still for that read-out and setting: with `Nc1ccc(CN2CCc3cc(Nc4ncc(C(F)(F)F)c(NC5CC5)n4)ccc3C2)cc1` [Compound A112] the figure was > 10 nM; with `CNC(=O)c1ccccc1Nc1nc(Nc2ccc3c(c2)CN(Cc2ccccn2)CC3)ncc1Br` [Compound A163, 2-[5-Bromo-2-(2-pyridin-2-ylmethyl-1,2,3,4-tetrahydro-isoquinolin-7-ylamino)-pyrimidin-4-ylamino]-N-methyl-benzamide], > 10 nM; with `N#CCN1CCc2cc(Nc3ncc(C(F)(F)F)c(NC4CC4)n3)ccc2C1` [Compound A45], < 1 nM.

In the case of `FC(F)(F)c1cnc(Nc2ccc3c(c2)CN(Cc2ccoc2)CC3)nc1NC1CC1` [Compound A101], the IC50 is < 1 nM. Regarding `FC(F)(F)c1cnc(Nc2ccc3c(c2)CCN(CC2CCNC2)C3)nc1NC1CC1` (stereo not shown) [Compound A43], the IC50 is < 1 nM. The same measure, in the same setting: to `CNC(=O)c1ccccc1Oc1nc(Nc2ccc3c(c2)CCN(CCOC)C3)ncc1C(F)(F)F` [Compound A121, 2-((2-((2-(2-Methoxyethyl)-1,2,3,4-tetrahydroisoquinolin-6-yl)amino)-5-(trifluoromethyl)pyrimidin-4-yl)oxy)-N-methylbenzamide] belongs > 10 nM; to `CNC(=O)c1ccccc1Nc1nc(Nc2ccc3c(c2)CN(Cc2ccncn2)CC3)ncc1Br` [Compound A160, 2-[5-Bromo-2-(2-pyrimidin-4-ylmethyl-1,2,3,4-tetrahydro-isoquinolin-7-ylamino)-pyrimidin-4-ylamino]-N-methyl-benzamide], > 10 nM. Still for that read-out and setting: to `CN1CCc2cc(Nc3ncc(N)c(NC4CC4)n3)ccc2C1` [Compound A61] belongs > 10 nM.

The experiment is the same for the next values; noted with them: Table 2.
`COC(=O)c1ccccc1Oc1nc(Nc2ccc(N3CCNCC3)cc2)ncc1Br` [Compound B47]: the IC50 was > 1000 nM.

In the case of `CNC(=O)c1ccccc1Oc1nc(Nc2ccc3c(c2)OCCO3)ncc1C(F)(F)F` [Compound B51, 2-((2-((2,3-Dihydrobenzo[b][1,4]dioxin-6-yl)amino)-5-(trifluoromethyl)pyrimidin-4-yl)oxy)-N-methylbenzamide], the half-inhibitory concentration (IC50) is > 1000 nM.

Turning to `COC(=O)c1ccccc1Oc1nc(Nc2cnc3[nH]ccc3c2)ncc1Br` [Compound B18], the IC50 was > 1000 nM.

Regarding `COc1cc(Nc2ncc(Br)c(Oc3ccccc3C(=O)N3CCOCC3)n2)cc(OC)c1OC` [Compound B9], the IC50 was > 1000 nM. Still for that read-out and setting: to `COc1cc(Nc2ncc(Br)c(Oc3ccccc3C(=O)N3CCN(C)CC3)n2)cc(OC)c1OC` [Compound B44] belongs > 1000 nM; to `COc1cc(Nc2ncc(Br)c(Oc3ccccc3C(=O)O)n2)cc(OC)c1OC` [Compound B4], 100 to 1000 nM. In the case of `COC(=O)c1ccccc1Oc1nc(Nc2cccc(OC(F)(F)F)c2)ncc1Br` [Compound B40], the IC50 is > 1000 nM. Still for that read-out and setting: to `COc1cc(Nc2ncc(Br)c(Oc3ccccc3C(=O)N(C)CC#N)n2)cc(OC)c1OC` [Compound B45] belongs 100 to 1000 nM; to `COC(=O)c1ccccc1Oc1nc(Nc2ccc3c(c2)CCO3)ncc1Br` [Compound B30], > 1000 nM. Still for that read-out and setting: to `COC(=O)c1ccccc1Oc1nc(Nc2ccc(OC)nc2)ncc1Br` [Compound B39] belongs > 1000 nM.

Still in this experiment, the particulars now being: Table 3.
For the compound `CNC(=O)c1ccc(Nc2nc(Nc3cc(OC)c(OC)c(OC)c3)ncc2Br)cc1` [Compound E27, 4-((5-Bromo-2-((3,4,5-trimethoxyphenyl)amino)pyrimidin-4-yl)amino)-N-methylbenzamide], the IC50 was > 100 nM.

As to `CNC(=O)c1ccccc1Nc1nc(Nc2cc(OC)cc(OC)c2)ncc1Br` [Compound E17, 2-((5-Bromo-2-((3,5-dimethoxyphenyl)amino)pyrimidin-4-yl)amino)-N-methylbenzamide], the IC50 was in the range of 5 to 100 nM. Still for that read-out and setting: to `COc1cc(Nc2ncc(Br)c(Oc3ccc(NC(=O)CC(=O)Nc4ccc(F)cc4)cc3F)n2)cc(OC)c1OC` [Compound C29, N^1-(4-((5-Bromo-2-((3,4,5-trimethoxyphenyl)amino)pyrimidin-4-yl)oxy)-3-fluorophenyl)-N^3-(4-fluorophenyl)malonamide] belongs > 100 nM; to `CN(C)Cc1ccc(Nc2ncc(C(F)(F)F)c(NC3CC3)n2)cc1` [Compound D4], < 5 nM; to `COc1cccc(Nc2ncc(Br)c(Nc3ccccc3CO)n2)c1` [Compound C6], < 5 nM.

For the origin of these results see patent US20230135635A1, “INHIBITORS OF ULK1/2 AND METHODS OF USING SAME” (SALK INSTITUTE FOR BIOLOGICAL STUDIES, priority 2020, published 2023).
